Test results: ChEMBL document CHEMBL6092168, “Identification of novel indolinone derivatives as CTSC inhibitors to treat inflammatory bowel disease by modulating inflammatory factors” (Eur J Med Chem, 2024)
Calls of active or inactive are those of the source. The calls are words filed in the database; no cut-off is given here.

Assays:
[1] = target: T1, Myeloblastin (Mus musculus) (UniProt Q61096); experiment: In vivo inhibition of proteinase 3 in C57BL/6 mouse assessed as reduction in proteinase 3 activity in blood administered orally once daily for 6 days by fluorescence based microplate reader; assay type: functional, organism-based; settings: dose 5-30 mg/kg, route po, time 6.0 day
T1 sequence (whole entry): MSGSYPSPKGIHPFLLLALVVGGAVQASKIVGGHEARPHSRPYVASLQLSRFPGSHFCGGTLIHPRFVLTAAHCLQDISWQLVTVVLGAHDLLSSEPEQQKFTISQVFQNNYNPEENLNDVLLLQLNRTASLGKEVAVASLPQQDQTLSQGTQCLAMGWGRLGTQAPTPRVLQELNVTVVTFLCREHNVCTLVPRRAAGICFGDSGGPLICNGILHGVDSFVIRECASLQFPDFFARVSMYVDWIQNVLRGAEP

RAW264.7 [2] = experiment: Anti-inflammatory activity in LPS-stimulated mouse RAW264.7 cells assessed as reduction in GM-CSF production incubated for 24 hrs by ELISA; assay type: functional, cell-based; settings: dose 0.62-5 µM
Mus musculus [3] = experiment: Anti-inflammatory activity in DSS-induced ulcerative colitis male C57BL/6 mouse model assessed as reduction in neutrophil elastase level in serum at 15 to 30 mg/kg administered via gavage for 10 days; assay type: functional, organism-based; settings: dose 15-30 mg/kg, time 10.0 day
Mus musculus [4] = experiment: Anti-inflammatory activity in DSS-induced ulcerative colitis male C57BL/6 mouse model assessed as decrease in body weight loss at 15 mg/kg administered via gavage for 10 days; assay type: functional, organism-based; settings: time 10.0 day
[5] = target: T2, Cathepsin G (Mus musculus) (UniProt P28293); experiment: In vivo inhibition of Cathepsin G in C57BL/6 mouse assessed as reduction in cathepsin G activity in bone marrow administered orally once daily for 6 days by fluorescence based microplate reader; assay type: functional, organism-based; settings: dose 5-30 mg/kg, route po, time 6.0 day
T2 sequence (whole entry): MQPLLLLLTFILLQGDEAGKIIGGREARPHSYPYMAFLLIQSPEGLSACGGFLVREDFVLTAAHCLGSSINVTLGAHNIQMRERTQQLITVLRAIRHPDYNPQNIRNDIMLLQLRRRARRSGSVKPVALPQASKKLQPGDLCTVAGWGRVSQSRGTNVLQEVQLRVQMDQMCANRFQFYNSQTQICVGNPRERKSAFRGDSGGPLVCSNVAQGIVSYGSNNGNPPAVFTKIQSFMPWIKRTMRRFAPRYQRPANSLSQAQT

Mus musculus [6] = experiment: Anti-inflammatory activity in DSS-induced ulcerative colitis male C57BL/6 mouse model assessed as reduction in neutrophil elastase level in colon at 60 mg/kg administered via gavage for 10 days relative to control; assay type: functional; parameters: scale not given: the % may be the effect or the level left; settings: time 10 day
Mus musculus [7] = experiment: Anti-inflammatory activity in DSS-induced ulcerative colitis male C57BL/6 mouse model assessed as reduction in proteinase 3 level in serum at 15 to 30 mg/kg administered via gavage for 10 days; assay type: functional, organism-based; settings: dose 15-30 mg/kg, time 10.0 day
Mus musculus [8] = experiment: Anti-inflammatory activity in DSS-induced ulcerative colitis male C57BL/6 mouse model assessed as reduction in Cathepsin C level in serum at 60 mg/kg administered via gavage for 10 days relative to control; assay type: functional; parameters: scale not given: the % may be the effect or the level left; settings: time 10 day
[9] = Tmax in male Sprague-Dawley rat at 10 mg/kg, po measured at 5 to 1440 mins by LC-MS/MS analysis; assay type: ADME, organism-based; settings: in vivo, time 5-1440 min
[10] = target: T2, Cathepsin G (Mus musculus); experiment: Induction of Cathepsin G degradation in C57BL/6 mouse bone marrow cells assessed as remaining activity at 10 uM incubated for 12 hrs by Western blot analysis relative to control; assay type: cell-based; settings: Bone marrow cell
Mus musculus [11] = experiment: Anti-inflammatory activity in DSS-induced ulcerative colitis male C57BL/6 mouse model assessed as reduction in GM-CSF expression in serum administered via gavage for 10 days by ELISA; assay type: functional, organism-based; settings: dose 15-60 mg/kg, time 10.0 day
[12] = target: T3, Neutrophil elastase (Mus musculus) (UniProt Q3UP87); experiment: Induction of neutrophil elastase degradation in C57BL/6 mouse bone marrow cells assessed as remaining activity at 10 uM incubated for 12 hrs by Western blot analysis relative to control; assay type: cell-based; settings: Bone marrow cell
T3 sequence (whole entry): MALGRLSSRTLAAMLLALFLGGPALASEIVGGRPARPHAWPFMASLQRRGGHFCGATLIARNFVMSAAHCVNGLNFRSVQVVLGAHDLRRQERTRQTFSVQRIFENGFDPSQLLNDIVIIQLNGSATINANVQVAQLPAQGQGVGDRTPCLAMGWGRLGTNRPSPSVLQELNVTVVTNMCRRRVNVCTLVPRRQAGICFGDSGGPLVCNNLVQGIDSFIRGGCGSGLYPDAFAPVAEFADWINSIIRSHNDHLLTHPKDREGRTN

[13] = Acute toxicity in ICR mouse assessed as lung pathological change at 1500 mg/kg, po administered daily for 7 days by H and E staining based analysis; assay type: organism-based; settings: in vivo, 168 h, time 7 day
Mus musculus [14] = experiment: Anti-inflammatory activity in DSS-induced ulcerative colitis male C57BL/6 mouse model assessed as reduction in TNF-alpha expression in colon administered via gavage for 10 days by ELISA; assay type: functional, organism-based; settings: dose 15-60 mg/kg, time 10.0 day
[15] = target: T1, Myeloblastin (Mus musculus); experiment: Induction of proteinase 3 degradation in C57BL/6 mouse bone marrow cells assessed as residual activity at 10 uM incubated for 48 hrs by Western blot analysis relative to control; assay type: cell-based; settings: Bone marrow cell
Mus musculus [16] = experiment: Anti-inflammatory activity in DSS-induced ulcerative colitis male C57BL/6 mouse model assessed as increase in IL-10 expression in colon administered via gavage for 10 days by ELISA; assay type: functional, organism-based; settings: dose 15-60 mg/kg, time 10.0 day
[17] = target: T3, Neutrophil elastase (Mus musculus); experiment: Induction of neutrophil elastase degradation in C57BL/6 mouse bone marrow cells assessed as residual activity at 10 uM incubated for 48 hrs by Western blot analysis relative to control; assay type: cell-based; settings: Bone marrow cell
[18] = target: T2, Cathepsin G (Mus musculus); experiment: In vivo inhibition of Cathepsin G in C57BL/6 mouse assessed as reduction in cathepsin G activity in blood at 30 mg/kg, po administered once daily for 6 days by fluorescence based microplate reader relative to control; assay type: functional, organism-based; settings: time 6.0 day
[19] = target: T3, Neutrophil elastase (Mus musculus); experiment: Induction of neutrophil elastase degradation in C57BL/6 mouse bone marrow cells at 10 uM incubated for 24 hrs by Western blot analysis; assay type: cell-based; settings: Bone marrow cell
[20] = target: T1, Myeloblastin (Mus musculus); experiment: In vivo inhibition of proteinase 3 in C57BL/6 mouse assessed as reduction in proteinase 3 activity in bone marrow administered orally once daily for 6 days by fluorescence based microplate reader; assay type: functional, organism-based; settings: dose 5-30 mg/kg, route po, time 6.0 day
Mus musculus [21] = experiment: Anti-inflammatory activity in DSS-induced ulcerative colitis male C57BL/6 mouse model assessed as reduction in neutrophil elastase level in serum at 60 mg/kg administered via gavage for 10 days relative to control; assay type: functional; parameters: scale not given: the % may be the effect or the level left; settings: time 10 day
[22] = target: T3, Neutrophil elastase (Mus musculus); experiment: In vivo inhibition of neutrophil elastase in C57BL/6 mouse assessed as reduction in neutrophil elastase activity in bone marrow administered orally once daily for 6 days by fluorescence based microplate reader; assay type: functional, organism-based; settings: dose 5-30 mg/kg, route po, time 6.0 day
Mus musculus [23] = experiment: Anti-inflammatory activity in DSS-induced ulcerative colitis male C57BL/6 mouse model assessed as reduction in proteinase 3 level in serum at 60 mg/kg administered via gavage for 10 days relative to control; assay type: functional; parameters: scale not given: the % may be the effect or the level left
RAW264.7 [24] = experiment: Anti-inflammatory activity in mouse RAW264.7 cells assessed as inhibition of LPS-induced TNF-alpha production at 5 uM preincubated for 1 hr followed by LPS addition and measured after 24 hrs by ELISA relative to control; assay type: functional; parameters: scale not given: the % may be the effect or the level left; settings: time 25 hrs
Mus musculus [25] = experiment: Anti-inflammatory activity in DSS-induced ulcerative colitis male C57BL/6 mouse model assessed as reduction in IL- 6 expression in serum administered via gavage for 10 days by ELISA; assay type: functional, organism-based; settings: dose 15-60 mg/kg, time 10.0 day

In the case of O=C1Nc2c(cccc2-c2ccc(NC3CCOCC3)cc2)/C1=C/c1ccnc2ccccc12, the inhibition [1] is reported as “Dose-dependent-effect”, the Activity (RAW264.7 [2]) is reported as “Dose-dependent-effect” and the Activity (Mus musculus [3]) is reported as “inactive”. For the same compound, the Activity (Mus musculus [4]) was “Active; Weight Loss Was Lower Than In Mesalazine Group”, the inhibition [5] was “Dose-dependent-effect” and the Activity (Mus musculus [6]) was 50%. For the same compound, the Activity (Mus musculus [7]) was “inactive”, the Activity (Mus musculus [8]) was 37% and the Tmax [9] was 39.6 min. For the same compound, the Activity [10] was 75%, the Activity (Mus musculus [11]) was “Dose-dependent-effect; Significant Reduction Observed In High Dose Group” and the Activity [12] was 75%. For the same compound, the Activity [13] was “Non-toxic”, the Activity (Mus musculus [14]) was “Active” and the Activity [15] was 8.71%. For the same compound, the Activity (Mus musculus [16]) was “Dose-dependent-effect; Significant Increase Observed In High Dose Group”, the Activity [17] was 6.65% and the inhibition [18] was 39.5%. The Activity [19] was “Active”, the inhibition [20] was “Dose-dependent-effect” and the Activity (Mus musculus [21]) was 52%. For the same compound, the inhibition [22] was “Dose-dependent-effect”, the Activity (Mus musculus [23]; time 10 day) was 54% and the Activity (Mus musculus [23]; time 10.0 day) was “Active”. For the same compound, the Activity (RAW264.7 [24]) was 83.6% and the Activity (Mus musculus [25]) was “Dose-dependent-effect; Significant Reduction Observed In High Dose Group”.
